Structures can show the parent of a compound that is named as a salt.

One assay concerns the target T1, androgen receptor (AR) (Homo sapiens, UniProt P10275, T878A).
T1 construct: endogenous in cells; host or cells: LNCaP
As to the kind of experiment: Reduction of androgen receptor (AR) expression levels in LNCaP cells (Western blot, DC50 and Dmax). The format is cell-based. The settings on record: 24 h of treatment, 0.01, 0.1, 1 and 10 µM, α-tubulin internal reference. Here is the method: The human prostate cancer cell line LNCaP cells selected in this experiment were cultured in an RPMI-1640 culture medium containing 10% fetal bovine serum (Gibco, USA) in an incubator under the conditions of 37°C, 5% CO2 and 95% humidity. When the growth density reached 80%, the cells were inoculated into a 6-well plate with 5×10^5 cells per well. After culturing for 24 h, the culture medium was replaced with a culture medium containing the compounds so that the final concentrations of the compounds were 0.01, 0.1, 1 and 10 µM. After 24 h of treatment, the supernatant was removed, the cells were washed twice with PBS, and a RIPA lysis buffer containing a protease inhibitor and a phosphatase inhibitor was added to the cells. After lysis and centrifugation, the total protein extract was obtained. The concentration of the protein in the extract was determined by using the BCA method.
Protein electrophoresis was performed by using SDS-PAGE, followed by electrotransfer at a constant current of 200 mA for 90 min to transfer proteins onto the PVDF membrane. The PVDF membrane was placed in 5% skim milk and blocked for 1 h at room temperature. An anti-Androgen Receptor antibody [EPR1535(2)] (ab133273)(1:10000) was added for incubation overnight at 4°C. The membrane was washed with TBST for 3 times, with 10 min each time. The mixture of the membrane and a secondary antibody were incubated for 60 min at room temperature. The membrane was washed with TBST for 3 times, with 10 min each time. The ECL light-emitting liquid was dropwise added for exposure. Each sample was simultaneously detected using α-tubulin protein as an internal reference. The protein profile was analyzed for grayscale values using analysis software ImageJ. The gray scale correction value of each sample was calculated by using the formula: gray scale correction value = (gray scale value of the target protein/gray scale value of the corresponding internal reference) […] 10^3. Then, the calculated gray scale correction value was compared with a control gray scale correction value to calculate a degradation rate. Then, nonlinear curve fitting was performed on a logarithmic concentration-inhibition rate using Prism to obtain the DC50 and Dmax values of the compound.
Table 14 summarizes the evaluation of protein degraders PRTA-01 to 06 in reducing AR protein expression levels. DC50 represents the concentration of the protein degrader when it induces AR protein degradation to 50% of the initial level, and the level is classified as A (DC50<1 µM), B (DC50 1~10 µM), or C (DC50>10 µM). Dmax represents the proportion of the maximum degree of […] protein degradation induced by the protein degrader to the total AR protein amount, with the level graded as A (Dmax>85%), B (Dmax85-50%), or C (Dmax<50%). Table 14 Evaluation of protein degraders PRTA-01 to 06 in reducing AR protein expression levels
(In general: In western blotting, separated proteins are transferred to a membrane and probed.)
Take `N#Cc1ccc(O[C@H]2CC[C@H](NC(=O)c3ccc(N4CCC(CN5CC6(C5)CN(c5ccc(C7CCC(=O)NC7=O)nn5)C6)CC4)cc3)CC2)cc1Cl` (stereo partly shown) [PRTA-05]: the DC50 is < 1000 nM and the Dmax is 50 to 85%.

Take `N#Cc1ccc(O[C@H]2CC[C@H](NC(=O)c3ccc(N4CCN(CC5CCN(c6ccc(C7CCC(=O)NC7=O)nn6)CC5)CC4)cc3)CC2)cc1Cl` (stereo partly shown) [PRTA-01]: the DC50 was < 1000 nM and the Dmax was 50 to 85%.

On to `N#Cc1ccc(O[C@H]2CC[C@H](NC(=O)c3ccc(N4CCC(n5cc(C#Cc6ccc(C7CCC(=O)NC7=O)nn6)cn5)CC4)cc3)CC2)cc1Cl` (stereo partly shown) [PRTA-06], for which the DC50 is < 1000 nM and the Dmax is > 85%.

As for `Cc1cc(N2CCN(CC3CCN(c4ccc(C(=O)N[C@H]5CC[C@H](Oc6ccc(C#N)c(Cl)c6)CC5)nn4)CC3)CC2)nnc1C1CCC(=O)NC1=O` (stereo partly shown) [PRTA-04], the DC50 is 1000 to 10000 nM and the Dmax lay within 50 to 85%.

For the compound `N#Cc1ccc(OC2CCC(NC(=O)c3ccc(N4CCC(CN5CCN(c6ccc(C7CCC(=O)NC7=O)nn6)CC5)CC4)nn3)CC2)cc1Cl` (stereo not shown) [PRTA-02], the DC50 is < 1000 nM and the Dmax is > 85%.

Consider `N#Cc1ccc(O[C@H]2CC[C@H](NC(=O)c3ccc(N4CCC(CN5CCN(c6ccc(N7CCC(=O)NC7=O)nn6)CC5)CC4)nn3)CC2)cc1Cl` [PRTA-03], for which the DC50 is < 1000 nM and the Dmax is > 85%.

Another assay has as its target T2, E3 ubiquitin ligase CRBN (Homo sapiens, UniProt Q96SW2).
T2 construct: purchased PE (PerkinElmer) 64BDCRBNPEG
Briefly: Binding activity to E3 ubiquitin ligase CRBN (HTRF competitive binding with XL665-labeled thalidomide, Cereblon binding kit). Conditions: competition with XL665-labeled thalidomide for GST-labelled CRBN protein, 3 h at room temperature. The method, then: The binding activity of the compound disclosed in the present patent to the E3 ubiquitin ligase CRBN was determined by competitive binding of the disclosed compound with XL665-labeled thalidomide to the CRBN protein, thereby preventing the occurrence of fluorescence resonance energy transfer (FRET). Accordingly, the binding affinity of the compound to the CRBN protein was determined.
CRBN binding activity test kit (CEREBLON BINDING KITS (PE, 64BDCRBNPEG)).
The assay was based on a homogeneous time-resolved fluorescence (HTRF) technology. When a donor and an acceptor were in close proximity, the donor transferred energy to the acceptor so that the acceptor was excited to emit an emission light 665 nm.
The donor used in the kit of the present disclosure was a europium-labeled GST antibody (GST Eu Cryptate Antibody), and the acceptor was thalidomide labeled with XL665 (Thalidomide-Red reagent). The donor bound to the CRBN protein comprising a GST label. The compound disclosed in the present patent competitively bound to the CRBN protein with thalidomide. The binding activity of the compound was determined according to the fluorescence value emitted by the acceptor at 665 nm. The stronger binding force of the compound indicated the weaker signal.
The donor and the acceptor were diluted 50-fold respectively by using a kit buffer (PROTAC binding buffer 1). The CRBN protein was diluted 45-fold. The 8 mM solution of the compound disclosed in the present patent was diluted 10-fold with 1X diluent from the kit, followed by 5-fold serial dilutions for a total of 7 consecutive dilutions.
5 µl of compound, 5 µl of diluted CRBN protein and 10 µl of donor-acceptor isovolumetric mixture were sequentially added to each well of a white 384-well plate (PE, Part number:6008280). The above system was incubated for 3 h at room temperature.
A ratio of acceptor to donor emission signals for each individual well was calculated. Ratio = signal value at 665 nm/signal value at 620 nm * 10^4 Coefficient of variation (CV) = standard deviation (SD)/average Ratio × 100 [formula]
The IC50 value was calculated based on the compound concentration, Ratio and the coefficient of variation by using GraphPad Prism. Table 10 Binding activity of compounds 1-18 to E3 ubiquitin ligase CRBN
For orientation: Time-resolved FRET reads energy transfer from a long-lived donor to a nearby acceptor.
As usually defined, the IC50 is the concentration needed to halve the response being measured. Turning to `CN(C)c1nnc(C2CCC(=O)NC2=O)cc1N1CCNCC1` (stereo not shown) [Compound 42, 3-(6-(dimethylamino)-5-(piperazin-1-yl)pyridazin-3-yl)piperidine-2,6-dione hydrochloride salt], the IC50 stood at 50 µM.

Take `CN1C(=O)CCC(c2ccc(N3CCNCC3)nn2)C1=O` (stereo not shown) [Compound 43, 1-methyl-3-(6-(piperazin-1-yl)pyridazin-3-yl)piperidine-2,6-dione hydrochloride salt]: the IC50 is > 100 µM.

For `N#Cc1cc(C2CCC(=O)NC2=O)nnc1N1CCNCC1` (stereo not shown) [Compound 26, 6-(2,6-dioxopiperidin-3-yl) -3-(piperazin-1-yl)pyridazine-4-carbonitrile hydrochloride salt], the IC50 amounted to 50 µM.

On to `O=C1CCN(c2ccc(N3CCNCC3)nn2)C(=O)N1` [Compound 40, 1-(6-(piperazin-1-yl)pyridazin-3-yl)dihydropyrimidine-2,4(1H,3H)-dione hydrochloride salt], for which the IC50 is 50 µM.

`COc1ccc(C2CCC(=O)NC2=O)nn1` (stereo not shown) [Compound 8, 3-(6-methoxypyridazin-3-yl) piperidine-2,6-dione] registered an IC50 of 50 µM.

Take `Nc1cc(C2CCC(=O)NC2=O)nnc1N1CCNCC1` (stereo not shown) [Compound 29, 3-(5-amino-6-(piperazin-1-yl)pyridazin-3-yl)piperidine-2,6-dione hydrochloride salt]: the IC50 is 50 µM.

For the compound `O=C1CCC(c2ccc(N3CCNCC3)nn2)C(=O)N1` (stereo not shown) [Compound 7, 3-(6-(piperazin-1-yl)pyridazin-3-yl)piperidine-2,6-dione hydrochloride salt], the IC50 stood at 50 µM.

For `COc1cc(C2CCC(=O)NC2=O)nnc1N1CCNCC1` (stereo not shown) [Compound 28, 3-(5-methoxy-6-(piperazin-1-yl)pyridazin-3-yl)piper idine-2,6-dione hydrochloride salt], the half-inhibitory concentration (IC50) stood at 50 µM.

Turning to `N#Cc1cc(N2CCNCC2)nnc1C1CCC(=O)NC1=O` (stereo not shown) [Compound 14, 3-(2,6-dioxopiperidin-3-yl) -6-(piperazin-1-yl)pyridazine-4-carbonitrile hydrochloride salt], the IC50 came out at 50 µM.

On to `O=C1CCC(c2cc(C(F)(F)F)c(N3CCNCC3)nn2)C(=O)N1` (stereo not shown) [Compound 27, 3-(6-(piperazin-1-yl)-5-(trifluoromethyl)pyridazin-3-yl)piperidine-2,6-dione hydrochloride salt], for which the IC50 was determined as 50 µM.

As to `O=C1CCC(c2nnc(N3CCNCC3)cc2-c2ccncc2)C(=O)N1` (stereo not shown) [Compound 20, 3-(6-(piperazin-1-yl)-4-(pyridin-4-yl)pyridazin-3-yl)pi peridine-2,6-dione hydrochloride salt], the half-inhibitory concentration (IC50) was > 100 µM.

The compound `Cc1cc(N2CCNCC2)nnc1C1CCC(=O)NC1=O` (stereo not shown) [Compound 9, 3-(4-methyl-6-(piperazin-1-yl)pyridazin-3-yl)piperidine-2,6-dione hydrochloride salt] gave an IC50 of 50 µM.

As for `Cc1cc(C2CCC(=O)NC2=O)nnc1N1CCNCC1` (stereo not shown) [Compound 21, 3-(5-methyl-6-(piperazin-1-yl)pyridazin-3-yl)piperidine-2,6-dione hydrochloride salt], the IC50 came to 50 µM.

With `O=C1CCC(c2nnc(N3CCNCC3)cc2C(F)(F)F)C(=O)N1` (stereo not shown) [Compound 15, 3-(6-(piperazin-1-yl)-4-(trifluoromethyl)pyridazin-3-yl)piperidine-2,6-dione hydrochloride salt], the IC50 was found to be 50 µM.

`O=C1CCC(c2cc(F)c(N3CCNCC3)nn2)C(=O)N1` (stereo not shown) [Compound 25, 3-(5-fluoro-6-(piperazin-1-yl)pyridazin-3-yl)piperidine-2,6-dione hydrochloride salt] displayed an IC50 of 50 µM.

`O=C1CCC(c2ccc(N3CCC[C@@H]3CO)nn2)C(=O)N1` (stereo partly drawn) [Compound 5, 3-(6-((R)-2-(hydroxymethyl)pyrrolidin-1-yl)pyridazin-3-yl)piperidine-2,6-dione]: the IC50 was 50 µM.

Regarding `O=C1CCC(c2nnc(N3CCNCC3)cc2F)C(=O)N1` (stereo not shown) [Compound 13, 3-(4-fluoro-6-(piperazin-1-yl)pyridazin-3-yl)piperidine-2,6-dione hydrochloride salt], the IC50 is 50 µM.

`Nc1cc(N2CCNCC2)nnc1C1CCC(=O)NC1=O` (stereo not shown) [Compound 17, 3-(4-amino-6-(piperazin-1-yl)pyridazin-3-yl)piperidine-2,6-dione hydrochloride salt]: the half-inhibitory concentration (IC50) amounted to 50 µM.

As for `Cc1c(C2CCC(=O)NC2=O)nnc(N2CCNCC2)c1C` (stereo not shown) [Compound 33, 3-(4,5-dimethyl-6-(piperazin-1-yl)pyridazin-3-yl)pip eridine-2,6-dione hydrochloride salt], the IC50 turned out to be 50 µM.
